In patent US20250129021A1, “SMALL MOLECULE PROTEIN SYNTHESIS MODULATORS” (Interdict Bio, Inc., priority 2023, published 2025) one finds IC50 data, which are given here for 17 molecules.

Assay type in all cases: biochemical
The test system of one assay is MYC. Kind of assay: In vitro transcription-translation (IVTT) assay, MYC reporter. The following applies: IVTT assay, HeLa S3 lysate, MYC reporter, normalized sfGFP/mCherry ratio; half-log dilutions 30 μM-0.1 μM, 2 hrs at 30° C. Put shortly: (§1)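 Reporter: mCherry, P2A, then 3×FLAG-target peptide-sfGFP fusion, IRES-initiated; HeLa S3 lysate IVTT; cpd dilutions 30 μM−0.1 μM half-log in 100% DMSO (dilution-plate conc); DNA added last; 2 h, 30° C; PBS quench.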

The next assay concerns CCND1. Kind of assay: In vitro transcription-translation (IVTT) assay, CCND1 reporter. As to conditions: IVTT, HeLa S3 lysate, 2 hrs at 30° C. The gist of the method:
as §1

A further assay concerns MCL-1. Kind of assay: In vitro transcription-translation (IVTT) assay, MCL-1 reporter. As to conditions: IVTT, HeLa S3 lysate, 2 hrs at 30° C.; read-out: MCL1 IC50. The gist of the method:
as §1

A further assay has as its system CCNTB1. Kind of assay: In vitro transcription-translation (IVTT) assay, CCNTB1 reporter. The following applies: HeLa S3 lysate, 2 hrs at 30° C. How it is done: Each preparation takes 8 cell pellets (4 ml packed volume each, approximately 1.0×10^9 cells per pellet). Thaw cell pellets from −80° C. on ice for 90 mins. Lay pellets horizontally on top of the ice and rotate every 30 mins to ensure even thawing. Once thawed, add 4 mL of cold lysis buffer to each pellet, and using a serological pipet, gently pipet up and down to break up clumps. Incubate resuspended cells in ice for an additional 30 mins (plunged into ice). During 30 min incubation, rinse and RNase-zap (Ambion) glass dounces (use loose pestle “A”), gently dry and place on ice until needed. Prepare RNase-free Eppendorf tubes for spinning and for batch storage. Add batch labels to 1.5-1.7 mL RNase-free microcentrifuge tubes (labeling scheme below). Each batch will have an extra 1.5-1.7 mL RNase-free microcentrifuge tube for 40 μL of lysate, label the top of this tube (labeling scheme below). After 30 min incubation, transfer all 8 mL of cell pellet to dounce. Cell lysis is complete after douncing 100 times. Aliquot cell lysis into 1.5-1.7 mL temporary-microcentrifuge tubes. Place tubes in centrifuge with “fins” out, and spin at 1,200×g for 5 mins. After the first spin use a 1 mL pipet to resuspend each tube and repeat spin. This acts as an additional lysis step, is more vigorous and increases lysate yield. During second spin get liquid N2 and a fresh conical tube on ice. After spin is complete, transfer supernatant (lysate) from microcentrifuge tubes into the 50 mL conical tube and keep on ice. Repeat steps 10-14 for all other cell pellets until completed. Once all cell lysate has been transferred to the 50 mL conical tube pipet to mix so the solution is homogenous. Transfer 1 mL of lysate into batch-labeled microcentrifuge tubes and flash freeze in liquid nitrogen. Be sure to pipet up and down to mix throughout transfer step. Place all tubes in the […] for long-term storage.
In vitro transcription-translation assay setup: Each assay includes a master mix containing lysate and shared components, a 96-well plate containing compound titrations for testing, a 96-well DNA plate with reporter constructs to be tested, 96-well skirted PCR plates, and 96-well flat-bottom, black, fluorescent assay plates. Reaction materials setup: (A) Master mix—15 mL conical tube (3 mL of HeLa S3 Lysate described above; 0.6 mL of ThermoFisher Accessory Proteins (#88882); 1.2 ml of ThermoFisher Reaction Mix (#88882); 0.54 mL of nuclease-free Water); (B) 96-Well Master Mix+Compound Plate (Half-log dilutions (30 μM−0.1 μM) of 4 compounds of interest are prepared in 100% DMSO); 96-Well DNA Plate (Five DNA constructs are plated into single columns within the plate. Row 1 of the column contains nuclease free H2O, all other wells contain 110 ng/μL plasmid DNA). Reactions are started by mixing 155 μL of master mix and 3.5 μL of compound serial dilutions, then 9.1 μL of master mix+compound mixture is aliquoted across 5 96-well plates. Reactions begin with final addition of 2 μL of DNA for a 11.1 μL reaction volume in each well. The entire plate is sealed, and incubated for 2 hrs at 30° C. After 2 hrs, quench the assay using 45 μL of PBS, and transfer 50 μL to a flat-bottom black microplate Quantify the sfGFP and mCherry signals from each well on each plate, taking 3 reads of each plate, and perform data analysis below.
In vitro transcription-translation assay data analysis: Each plate is read three times in channels for both sfGFP and mCherry signals. The average signal across these 3 reads is then calculated for further analysis. Control wells containing no DNA reporter are subtracted from reporter wells in the same column to remove auto-fluorescence of the lysate. Then, the ratio of sfGFP/mCherry is calculated per well, and these ratios are averaged across the triplicate experiments on the same plate. Finally, the ratio of each titration concentration is normalized to the no drug control to create the normalized stalling metric. […]

Turning to `O=C(NCC1CC1)O[C@@H]1[C@@H](O)CN[C@@H]1Cc1ccc(-c2c[nH]nn2)cc1` [V188327, (2R,3S,4S)-4-hydroxy-2-{[4-(1H−1,2,3-triazol-4-yl)phenyl]methyl}pyrrolidin-3-yl N-(cyclopropylmethyl)carbamate], the concentration for half-maximal inhibition (IC50) with MYC, in the assay with CCND1, in the assay with MCL-1 and in the assay on CCNTB1 was less than 10 µM in each case.
`COc1ccc(C[C@H]2NC[C@H](O)[C@H]2OC(=O)NCC2(F)CC2)cc1` [V188381, (2R,3S,4S)-4-hydroxy-2-[(4-methoxyphenyl)methyl]pyrrolidin-3-yl N-[(1-fluorocyclopropyl)methyl]carbamate]: the IC50 in the assay with MYC was less than 10 µM; in the assay with CCND1 it was 10 to 20 µM; with MCL-1, less than 10 µM; in the assay on CCNTB1, less than 10 µM.
As to `COc1ccc(C[C@H]2NC[C@H](O)[C@H]2OC(=O)NCc2cccc3cn[nH]c23)cc1` [V190459, (2R,3S,4S)-4-hydroxy-2-[(4-methoxyphenyl)methyl]pyrrolidin-3-yl N-(1H-indazol-7-ylmethyl)carbamate], the 50% inhibitory concentration (IC50) in the assay with MYC is less than 10 µM; in the assay with CCND1, 10 to 20 µM; with MCL-1, less than 10 µM; in the assay on CCNTB1 it was less than 10 µM.
With `COc1ccc(C[C@H]2NC[C@H](O)[C@H]2OC(=O)NCc2ccc(F)c(C#N)c2)cc1` [V188310, (2R,3S,4S)-4-hydroxy-2-[(4-methoxyphenyl)methyl]pyrrolidin-3-yl N-[(3-cyano-4-fluorophenyl)methyl]carbamate], the IC50 in the assay on MYC, in the assay on CCND1, in the assay on MCL-1 and in the assay on CCNTB1 was less than 10 µM each time.
Turning to `O=C(NCc1ccccc1)O[C@@H]1[C@@H](O)CN[C@@H]1Cc1ccc(-c2c[nH]nn2)cc1` [V188331, (2R,3S,4S)-4-hydroxy-2-{[4-(1H−1,2,3-triazol-4-yl)phenyl]methyl}pyrrolidin-3-yl N-benzylcarbamate], the IC50 with MYC, with CCND1, in the assay on MCL-1 and with CCNTB1 was less than 10 µM throughout.
Turning to `COc1ccc(C[C@H]2NC[C@H](O)[C@H]2OC(=O)NCC[C@@H]2CCC3(CC3)N2)cc1` [V191945, (2R,3S,4S)-4-hydroxy-2-[(4-methoxyphenyl)methyl]pyrrolidin-3-yl N-{2-[(5S)-4-azaspiro[2.4]heptan-5-yl]ethyl}carbamate], the IC50 with MYC is less than 10 µM; in the assay on CCND1 it was 10 to 20 µM; with MCL-1 it was less than 10 µM; in the assay with CCNTB1, less than 10 µM.
On to `COc1ccc(C[C@H]2NC[C@H](O)[C@H]2OC(=O)NCc2cccc(F)c2)cc1` [V188379, (2R,3S,4S)-4-hydroxy-2-[(4-methoxyphenyl)methyl]pyrrolidin-3-yl N-[(3-fluorophenyl)methyl]carbamate], for which the IC50 in the assay with MYC, with CCND1, with MCL-1 and in the assay with CCNTB1 was less than 10 µM each time.
With `COc1ccc(C[C@H]2NC[C@H](O)[C@H]2OC(=O)NCc2ccccc2Cl)cc1` [V191915, (2R,3S,4S)-4-hydroxy-2-[(4-methoxyphenyl)methyl]pyrrolidin-3-yl N-[(2-chlorophenyl)methyl]carbamate], the IC50 in the assay on MYC, with CCND1, with MCL-1 and in the assay with CCNTB1 was less than 10 µM in each case.
As for `COc1ccc(C[C@H]2NC[C@H](O)[C@H]2OC(=O)NCCC[C@H]2CCNC2)cc1` [V188340, (2R,3S,4S)-4-hydroxy-2-[(4-methoxyphenyl)methyl]pyrrolidin-3-yl N-{3-[(3S)-pyrrolidin-3-yl]propyl}carbamate], the IC50 with MYC is less than 10 µM; in the assay on CCND1, 10 to 20 µM; with MCL-1, less than 10 µM; with CCNTB1, less than 10 µM.
As to `COc1ccc(C[C@H]2NC[C@H](O)[C@H]2OC(=O)NCC#Cc2ccccc2)cc1` [V188315, (2R,3S,4S)-4-hydroxy-2-[(4-methoxyphenyl)methyl]pyrrolidin-3-yl N-(3-phenylprop-2-yn-1-yl)carbamate], the IC50 in the assay with MYC was 10 to 20 µM; in the assay with CCND1 it was 20 to 30 µM; with MCL-1, less than 10 µM; in the assay with CCNTB1, less than 10 µM.
As for `COc1ccc(C[C@H]2NC[C@H](O)[C@H]2OC(=O)NCc2ccc(C3CC3)cc2)cc1` [V188321, (2R,3S,4S)-4-hydroxy-2-[(4-methoxyphenyl)methyl]pyrrolidin-3-yl N-[(4-cyclopropylphenyl)methyl]carbamate], the IC50 was greater than 30 µM in the assay on MYC, greater than 30 µM in the assay on CCND1, 10 to 20 µM in the assay with MCL-1 and 10 to 20 µM with CCNTB1.
On to `COc1ccc(C[C@H]2NC[C@H](O)[C@H]2OC(=O)NCc2cnoc2)cc1` [V188383, (2R,3S,4S)-4-hydroxy-2-[(4-methoxyphenyl)methyl]pyrrolidin-3-yl N-(1,2-oxazol-4-ylmethyl)carbamate], for which the IC50 in the assay with MYC, in the assay on CCND1, with MCL-1 and in the assay with CCNTB1 was less than 10 µM each time.
On to `COc1ccc(C[C@H]2NC[C@H](O)[C@H]2OC(=O)NCc2ccc(C#N)cc2)cc1` [V188377, (2R,3S,4S)-4-hydroxy-2-[(4-methoxyphenyl)methyl]pyrrolidin-3-yl N-[(4-cyanophenyl)methyl]carbamate], for which the IC50 with MYC, in the assay on CCND1, in the assay on MCL-1 and with CCNTB1 was less than 10 µM each time.
For the molecule `O=C(NCc1cccc(F)c1)O[C@@H]1[C@@H](O)CN[C@@H]1Cc1ccc(-c2ncco2)cc1` [V190514, (2R,3S,4S)-4-hydroxy-2-{[4-(1,3-oxazol-2-yl)phenyl]methyl}pyrrolidin-3-yl N-[(3-fluorophenyl)methyl]carbamate], the IC50 in the assay on MYC, with CCND1, with MCL-1 and in the assay with CCNTB1 was less than 10 µM throughout.
Regarding `COc1ccc(C[C@H]2NC[C@H](O)[C@H]2OC(=O)NCC(F)(F)c2ccccc2)cc1` [V188165, (2R,3S,4S)-4-hydroxy-2-[(4-methoxyphenyl)methyl]pyrrolidin-3-yl N-(2,2-difluoro-2-phenylethyl)carbamate], the IC50 is 20 to 30 µM in the assay on MYC, 10 to 20 µM in the assay with CCND1, 20 to 30 µM in the assay on MCL-1 and less than 10 µM in the assay with CCNTB1.
As for `O=C(NCC[C@@H]1CCCN1)O[C@@H]1[C@@H](O)CN[C@@H]1Cc1ccc(F)cc1` [V191886, (2R,3S,4S)-2-[(4-fluorophenyl)methyl]-4-hydroxypyrrolidin-3-yl N-{2-[(2S)-pyrrolidin-2-yl]ethyl}carbamate], the half-inhibitory concentration (IC50) with MYC, in the assay with CCND1, in the assay with MCL-1 and in the assay with CCNTB1 was less than 10 µM in each case.
For `COc1ccc(C[C@H]2NC[C@H](O)[C@H]2OC(=O)NCCc2c(C)noc2C)cc1` [V190414, (2R,3S,4S)-4-hydroxy-2-[(4-methoxyphenyl)methyl]pyrrolidin-3-yl N-[2-(3,5-dimethyl-1,2-oxazol-4-yl)ethyl]carbamate], the half-inhibitory concentration (IC50) is greater than 30 µM in the assay on MYC, greater than 30 µM in the assay with CCND1, greater than 30 µM in the assay with MCL-1 and 20 to 30 µM in the assay with CCNTB1.

The IC50 is the midpoint of a concentration-inhibition curve.
